One assay addresses T1, KRAS(G12D)/SOS1 (Homo sapiens, UniProt P01116, G12D).
T1 construct: purchased Cisbio 63ADK000CB17PEH
The experiment in a line: KRAS(G12D)/SOS1 homogeneous time-resolved fluorescence (HTRF) assay. Type of assay: binding. The settings on record: absence of GTP; 4° C., 3 hr. How it is done: Binding of test compounds to KRAS(G12D) target protein, which in turn blocks KRAS(G12D) interaction with the SOS1 protein, was measured in the absences of GTP by homogeneous time-resolved fluorescence using the KRAS-G12D/SOS1 Binding Assay Kit (Cisbio, 63ADK000CB17PEH), following the manufacturer's instructions, except as noted. 3-fold serial dilutions of each test compound were prepared ranging from 20 µM to 1.02 nM. The test compound was mixed and incubated with reaction components, incubated in a sealed plate at 4° C. for 3 hr and fluorescence was measured using a PerkinElmer Envision plate reader. The KRAS(G12D)-SOS1 IC50 values (the concentration of 50% of the maximal inhibition) were calculated using GraphPad Prism 7 software.
(In TR-FRET formats the signal depends on donor and acceptor labels being close together.)

Assay [1] relates to AGS gastric carcinoma cells [heterozygous G12D]. The experiment in a line: Cancer cell line proliferation (CellTiter-Glo), AGS. Type of assay: cell-based. The settings on record: Homo sapiens, 72 hr treatment, read-out: AGS CTG (EC50). How it is done: (§1) The following cancer cell lines were employed: AGS gastric carcinoma [heterozygous G12D](ATCC, CRL-1739); A-427 lung carcinoma [heterozygous G12D](ATCC, HTB-53); ASPC1 pancreatic adenocarcinoma [homozygous G12D](ATCC, CRL-1682) and SW1990 pancreatic adenocarcinoma [homozygous G12D](ATCC CRL-2172). Cell lines were cultured essentially according to ATCC recommendations.
(§2) AGS, A-427, ASPC1, SW1990, and GP2D cells were plated in 96-well tissue culture plates at 4,000 cells/well and incubated at 37° C./5% CO2 for 72 hr in 100 μl of media. 3-fold serial dilutions of each test compound were prepared ranging from 20 μM to 1.02 nM. Each cell line was then treated with test compounds at various concentrations with a final concentration of 0.5% DMSO/well, and then incubated at 37° C./5% CO2 for 72 hr. 100 µl of CellTiter-Glo® Reagent (Promega Corporation, Madison, WI) was added to each well and processed according manufacturer's protocol. Results were analyzed and EC50 values were calculated in GraphPad 7 software.
For orientation: ATP-based viability assays read luminescence as a measure of living cells.

The test system of assay [2] is A-427 lung carcinoma cells [heterozygous G12D]. The experiment in a line: Cancer cell line proliferation (CellTiter-Glo), A-427. The assay is classed as cell-based. The settings on record: Homo sapiens, A-427 cells, 72 hr treatment, read-out: A427 CTG (EC50). How it is done:
as §1, §2

Each structure is given as a SMILES string. Bounds are passed on as bounds.

T1 sequence (P01116 1-188 isoform P01116-2 G12D): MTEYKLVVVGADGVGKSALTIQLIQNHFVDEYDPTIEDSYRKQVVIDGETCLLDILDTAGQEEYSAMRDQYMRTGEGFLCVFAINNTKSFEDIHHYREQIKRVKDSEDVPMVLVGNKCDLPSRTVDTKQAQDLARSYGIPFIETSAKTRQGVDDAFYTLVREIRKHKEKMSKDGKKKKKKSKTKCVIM

In turn, `C#Cc1cccc2cccc(-c3ncc4c(N5CC6CCC(C5)N6)nc(OCC5(CN6CCN(C(=O)C7CCN(Cc8ccc9c(c8)CN(C(=O)c8cc(C(C)C)c(O)cc8O)C9)CC7)CC6)CC5)nc4c3F)c12` [Compound 46] had an IC50 on KRAS(G12D)/SOS1 below 0.1 µM.

`CCNC(=O)c1nnc(-c2cc(C(C)C)c(O)cc2O)n1-c1ccc(CN2CCC(C(=O)N(C)[C@H]3CN4CCC[C@@]4(COc4nc(N5CC6CCC(C5)N6)c5cnc(-c6cc(O)cc7ccccc67)c(F)c5n4)C3)CC2)cc1` [Compound 47] registered an IC50 on KRAS(G12D)/SOS1 below 0.1 µM. Moreover, the EC50 in assay [1] lay within 0.1 to 1 µM.

For `CCNC(=O)c1nnc(-c2cc(C(C)C)c(O)cc2O)n1-c1ccc(CN2CCC(C(=O)N(C)[C@H]3CN4CCC[C@]4(COc4nc(N5CC6CCC(C5)N6)c5cnc(-c6cc(O)cc7ccccc67)c(F)c5n4)C3)CC2)cc1` [Compound 48], the EC50 in assay [1] fell in the range of 0.1 to 1 µM.

`Cc1cccc2cccc(-c3ncc4c(N5CC6CCC(C5)N6)nc(OC[C@@H]5CC[C@H](CN6CCN(Cc7ccc8c(c7)CN(C(=O)c7cc(C(C)C)c(O)cc7O)C8)CC6)N5C)nc4c3F)c12` [Compound 71] yielded an IC50 at KRAS(G12D)/SOS1 of 0.1 to 1 µM. The EC50 in assay [1] and in assay [2] was 0.1 to 1 µM each time.

As for `CCNC(=O)c1nnc(-c2cc(C(C)C)c(O)cc2O)n1-c1ccc(CN2CCN(C[C@H]3CC[C@@H](COc4nc(N5CC6CCC(C5)N6)c5cnc(-c6cccc7cccc(C)c67)c(F)c5n4)N3C)CC2)cc1` [Compound 72], at KRAS(G12D)/SOS1, the IC50 is 0.1 to 1 µM. Further, the EC50 in assay [1] and in assay [2] was below 0.1 µM in each case.

On to `CCc1cc(-c2nnc(C(=O)NCC(F)(F)F)n2-c2ccc(CN3CCN(C[C@H]4CC[C@@H](COc5nc(N6CC7CCC(C6)N7)c6cnc(-c7cc(C)cc8ccccc78)c(F)c6n5)N4C)CC3)cc2)c(O)cc1O` [Compound 73], for which the IC50 on KRAS(G12D)/SOS1 is below 0.1 µM. Further, the EC50 in assay [1] and in assay [2] was 0.1 to 1 µM in each case.

At KRAS(G12D)/SOS1, `CC(C)c1cc(C(=O)N2Cc3ccc(CN4CCN([C@H]5C[C@@H](COc6nc(N7CC8CNC(C8)C7)c7cnc(-c8cc(O)cc9ccccc89)c(F)c7n6)N(C)C5)CC4)cc3C2)c(O)cc1O` (stereo partly shown) [Compound 74] came in with an IC50 above 1 µM. The EC50 in assay [1] and in assay [2] was 0.1 to 1 µM in each case.

`C#Cc1cccc2cccc(-c3ncc4c(N5CC6CCC(C5)N6)nc(OCCN5CCN(CCN(CC)C(=O)c6cc(C(C)C)c(O)cc6O)CC5)nc4c3F)c12` [Compound 75] returned an IC50 on KRAS(G12D)/SOS1 of 0.1 to 1 µM. Further, the EC50 in assay [1] and in assay [2] was above 1 µM in each case.

Turning to `CC(C)c1cc(C(=O)N2Cc3ccc(CN4CCN(C[C@H]5CC[C@@H](COc6nc(N7CC8CCC(C7)N8)c7cnc(-c8cccc9cccc(F)c89)c(F)c7n6)N5C)CC4)cc3C2)c(O)cc1O` [Compound 76], the IC50 against KRAS(G12D)/SOS1 is 0.1 to 1 µM. Besides, the EC50 in assay [1] and in assay [2] was 0.1 to 1 µM each time.

With `Cc1c(F)cccc1-c1ncc2c(N3CC4CCC(C3)N4)nc(OC[C@@H]3C[C@H](N4CCN(C(=O)C5CCN(Cc6ccc7c(c6)CN(C(=O)c6cc(C(C)C)c(O)cc6O)C7)CC5)CC4)CN3C)nc2c1F` [Compound 84], the EC50 in assay [1] and in assay [2] was 0.1 to 1 µM each time.

Take `CC(C)c1cc(C(=O)N2Cc3ccc(CN4CCN(C[C@H]5C[C@@H](COc6nc(N7CC8CCC(C7)N8)c7cnc(-c8cc(O)cc9ccccc89)c(F)c7n6)N(C)C5)CC4)cc3C2)c(O)cc1O` [Compound 90]: the EC50 in assay [1] and in assay [2] was 0.1 to 1 µM each time.

Consider `CC(C)c1cc(-c2nnc(C(=O)NC(C)C(F)(F)F)n2-c2ccc(CN3CCN([C@H]4C[C@@H](COc5nc(N6CC7CCC(C6)N7)c6cnc(-c7ccccc7C(F)(F)F)c(F)c6n5)N(C)C4)CC3)cc2)c(O)cc1O` (stereo partly shown) [Compound 110], for which the EC50 in assay [1] and in assay [2] was 0.1 to 1 µM in each case.

On to `CCc1cc(-c2nnc(C(=O)NCC(F)(F)F)n2-c2ccc(CN3CCN([C@H]4C[C@@H](COc5nc(N6CC7CCC(C6)N7)c6cnc(-c7ccccc7C(F)(F)F)c(F)c6n5)N(C)C4)CC3)cc2)c(O)cc1O` [Compound 111], for which the EC50 in assay [1] and in assay [2] was 0.1 to 1 µM throughout.

In the case of `CC(C)c1cc(C(=O)N2Cc3ccc(CN4CCC(C(=O)N5CCN(C[C@H]6C[C@@H](COc7nc(N8CC9CCC(C8)N9)c8cnc(-c9cc(O)cc%10ccccc9%10)c(F)c8n7)N(C)C6)CC5)CC4)cc3C2)c(O)cc1O` [Compound 112], the concentration giving a half-maximal response (EC50) in assay [1] and in assay [2] was above 1 µM each time.

For the compound `C#Cc1cccc2cc(O)cc(-c3ncc4c(N5CC6CCC(C5)N6)nc(OC[C@@H]5C[C@H](CN6CCN(Cc7ccc8c(c7)CN(C(=O)c7cc(C(C)C)c(O)cc7O)C8)CC6)CN5C)nc4c3F)c12` [Compound 113], the EC50 in assay [1] and in assay [2] was 0.1 to 1 µM in each case.

Turning to `C#Cc1cccc2cc(O)cc(-c3ncc4c(N5CC6CCC(C5)N6)nc(OC[C@@H]5C[C@H](CN6CCN(Cc7ccc(-n8c(C(=O)NCC)nnc8-c8cc(C(C)C)c(O)cc8O)cc7)CC6)CN5C)nc4c3F)c12` [Compound 114], the EC50 in assay [1] and in assay [2] was 0.1 to 1 µM each time.

On to `C#Cc1cccc2cc(O)cc(-c3ncc4c(N5CC6CCC(C5)N6)nc(OC[C@@H]5C[C@H](CN6CCN(Cc7ccc(-n8c(C(=O)NC(C)C(F)(F)F)nnc8-c8cc(C(C)C)c(O)cc8O)cc7)CC6)CN5C)nc4c3F)c12` (stereo partly shown) [Compound 115], for which the EC50 in assay [1] and in assay [2] was 0.1 to 1 µM each time.

`C#Cc1cccc2cc(O)cc(-c3ncc4c(N5CC6CCC(C5)N6)nc(OC[C@@H]5C[C@H](CN6CCN(Cc7ccc(-n8c(C(=O)NCC(F)(F)F)nnc8-c8cc(CC)c(O)cc8O)cc7)CC6)CN5C)nc4c3F)c12` [Compound 116]: the EC50 in assay [1] was 0.1 to 1 µM; in assay [2], above 1 µM.

Regarding `C#Cc1c(F)ccc2cc(O)cc(-c3ncc4c(N5CC6CCC(C5)N6)nc(OCC5(CN6CCC(N7CCN(Cc8ccc9c(c8)CN(C(=O)c8cc(C(C)C)c(OC)cc8OC)C9)CC7)CC6)CC5)nc4c3F)c12` [Compound 196], the EC50 in assay [1] was below 0.1 µM.

Turning to `C#Cc1c(F)ccc2cc(O)cc(-c3ncc4c(N5CC6CCC(C5)N6)nc(OC[C@H]5CCCN5Cc5ccc(-n6c(C(=O)NC(C)C(F)(F)F)nnc6-c6cc(C(C)C)c(O)cc6O)cc5)nc4c3F)c12` (stereo partly shown) [Compound 206], the EC50 in assay [1] lay in the range of 0.1 to 1 µM.

Take `C#Cc1c(F)ccc2cc(O)cc(-c3ncc4c(N5CC6CNC(C6)C5)nc(OCC5(CN6CCC(N7CCN(Cc8ccc9c(c8)CN(C(=O)c8cc(C(C)C)c(O)cc8O)C9)CC7)CC6)CC5)nc4c3F)c12` (stereo not shown) [Compound 207]: the EC50 in assay [1] was in the range of 0.1 to 1 µM.

On to `C#Cc1c(F)ccc2cc(O)cc(-c3ncc4c(N5CC6CCC(C5)N6CC#N)nc(OCC5(CN6CCC(N7CCN(Cc8ccc9c(c8)CN(C(=O)c8cc(C(C)C)c(O)cc8O)C9)CC7)CC6)CC5)nc4c3F)c12` [Compound 208], for which, in assay [1], the EC50 was below 0.1 µM.

Take `C#Cc1c(F)ccc2cc(O)cc(-c3ncc4c(N5CC6CCC(C5)N6)nc(OCC5(CN6CCC(N7CCN(Cc8cc9c(cc8F)CN(C(=O)c8cc(C(C)C)c(O)cc8O)C9)CC7)CC6)CC5)nc4c3F)c12` [Compound 209]: the EC50 in assay [1] is below 0.1 µM.

Turning to `C#Cc1c(F)ccc2cc(O)cc(-c3nc(OC)c4c(N5CC6CCC(C5)N6)nc(OC5CN(CC6(F)CN(Cc7ccc8c(c7)CN(C(=O)c7cc(C(C)C)c(O)cc7O)C8)C6)C5)nc4c3F)c12` [Compound 210], the EC50 in assay [1] was 0.1 to 1 µM.

Turning to `C#Cc1c(F)ccc2cc(O)cc(-c3ncc4c(N5CC6CCC(C5)N6)nc(OCC5(CN6CCN(CC#Cc7cn(Cc8ncc(C)c(OC)c8C)c8nc(N)nc(Cl)c78)CC6)CC5)nc4c3F)c12` [Compound 211], the EC50 in assay [1] was below 0.1 µM.

For `C#Cc1c(F)ccc2cc(O)cc(-c3ncc4c(N5CC6CCC(C5)N6)nc(OCC5(CN6CC(C7CN(Cc8ccc9c(c8)CN(C(=O)c8cc(C(C)C)c(O)cc8O)C9)C7)C6)CC5)nc4c3F)c12` [Compound 213], the EC50 in assay [1] was below 0.1 µM.

Consider `C#Cc1cccc2cc(O)cc(-c3ncc4c(N5CC6CCC(C5)N6)nc(OCC5(CN6CCC(N7CCN(Cc8ccc9c(c8)CN(C(=O)c8cc(C(C)C)c(O)cc8O)C9)CC7)CC6)CC5)nc4c3F)c12` [Compound 214], for which the EC50 in assay [1] was below 0.1 µM.

For the compound `C#Cc1c(F)ccc2cc(O)cc(-c3ncc4c(N5CC6CCC(C5)N6)nc(OCC5(CN6CC(C7CCN(Cc8ccc9c(c8)CN(C(=O)c8cc(C(C)C)c(O)cc8O)C9)CC7)C6)CC5)nc4c3F)c12` [Compound 215], the EC50 in assay [1] was below 0.1 µM.

Take `C#Cc1c(F)ccc2cc(O)cc(-c3ncc4c(N5CC6CCC(C5)N6)nc(OCC5(CN6CCC(N7CCC(Oc8ccc9c(n8)CN(C(=O)c8cc(C(C)C)c(O)cc8O)C9)CC7)CC6)CC5)nc4c3F)c12` [Compound 216]: the EC50 in assay [1] was below 0.1 µM.

In the case of `C#Cc1c(F)ccc2cc(O)cc(-c3ncc4c(N5CC6CCC(C5)N6)nc(OCC5(CN6CC(CN(C)CCOc7ccc8c(c7)CN(C(=O)c7cc(C(C)C)c(O)cc7O)C8)C6)CC5)nc4c3F)c12` [Compound 218], the EC50 in assay [1] lay in the range of 0.1 to 1 µM.

The term IC50 denotes the concentration that inhibits the measured activity by half. A low value points to greater potency in that assay. Broadly, the EC50 is the concentration needed to bring the measured effect to its halfway point.

The values above are taken from patent US20260070929A1, “METHODS AND COMPOSITIONS FOR MODULATING KRAS(G12D)” (Ranok Therapeutics (Hangzhou) Co. LTD., priority 2022, published 2026).
